# Measurements as given in patent publication US8431706B2, “1,2,3,4-tetrahydroqinoline derivative useful for the treatment of diabetes” (Eli Lilly and Company, priority 2011, dated 2013).
# Legend:
# [1] = molecular target: T1, PPARδ (Homo sapiens, UniProt Q03181); experiment: PPARδ binding assay (SPA)
# T1 construct: made in house; host or cells: HEK293 (cell lysates)
# T1 sequence (Q03181 1-441): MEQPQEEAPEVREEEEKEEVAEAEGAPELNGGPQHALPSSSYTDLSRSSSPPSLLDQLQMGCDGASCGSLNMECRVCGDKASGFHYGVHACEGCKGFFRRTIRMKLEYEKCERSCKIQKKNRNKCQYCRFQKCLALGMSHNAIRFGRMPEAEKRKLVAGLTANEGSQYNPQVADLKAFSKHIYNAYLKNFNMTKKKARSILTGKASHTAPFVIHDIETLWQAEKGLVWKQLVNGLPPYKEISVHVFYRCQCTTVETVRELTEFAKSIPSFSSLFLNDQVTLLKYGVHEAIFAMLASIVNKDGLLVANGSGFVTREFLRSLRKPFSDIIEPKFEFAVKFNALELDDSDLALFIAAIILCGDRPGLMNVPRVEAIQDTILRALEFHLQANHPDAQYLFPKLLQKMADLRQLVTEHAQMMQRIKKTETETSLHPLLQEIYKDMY
# T1 sequence (P19793 1-462 partner): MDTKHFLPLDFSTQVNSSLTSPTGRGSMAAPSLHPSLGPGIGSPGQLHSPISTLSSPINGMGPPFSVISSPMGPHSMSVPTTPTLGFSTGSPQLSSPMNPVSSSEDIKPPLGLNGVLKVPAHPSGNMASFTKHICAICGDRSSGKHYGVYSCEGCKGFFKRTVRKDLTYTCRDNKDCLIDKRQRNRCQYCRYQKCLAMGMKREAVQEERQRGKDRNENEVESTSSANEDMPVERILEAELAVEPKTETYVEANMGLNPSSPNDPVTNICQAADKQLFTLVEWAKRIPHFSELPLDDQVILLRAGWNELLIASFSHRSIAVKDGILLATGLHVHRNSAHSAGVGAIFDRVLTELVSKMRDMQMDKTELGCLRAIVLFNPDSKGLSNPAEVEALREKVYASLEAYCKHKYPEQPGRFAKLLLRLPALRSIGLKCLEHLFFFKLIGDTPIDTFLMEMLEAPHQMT
# Experimental: Because GPR40 is known to be activated by ligands to PPARγ, the exemplified compound is examined in PPARα, PPARδ, and PPARγ binding and functional assays to determine the selectivity of the compound of Example 1 for GPR40.
# Binding affinities of the compound for the PPAR α, δ, and γ receptors are assessed using Scintillation Proximity Assay (SPA) technology. Biotinylated oligonucleotide Direct Repeat 2 (DR2) is used for binding the receptors to Yttrium silicate streptavidin-coated SPA beads. PPAR α, δ, γ and retinoid X receptor (RXR) α are over expressed in HEK293 cells, and cell lysates containing the specific receptors are used in the individual assays. The DR2 is attached to the SPA beads over a 30 minute period in a binding buffer containing 10 mM HEPES pH 7.8, 80 mM KCl, 0.5 mM MgCl2, 1 mM DTT, 0.5% 3[(3-cholamidopropyl)dimethylammonio]-propanesulfonic acid (CHAPS), and 4.4% bovine serum. […] Non-specific binding is determined in the presence of 10,000 nM of the unlabeled PPAR α/δ dual agonist reference compound for the alpha and delta receptor assays and the PPARγ agonist reference compound for the gamma receptor assay. The binding reaction (100 μl per well in a 96 well [Costar 3632] plate) is incubated for 10 h and counted disintegration per minutes (dpm) on a Wallac Microbeta. Receptor binding affinity (IC50) for the compound is determined by fitting an 11 point concentration-response curve with a 4-parameter logistic equation. Ki is determined from the IC50 using the Cheng-Prussoff equation and Kd determined by saturation binding. […]
# [2] = system: Male Balb/c mice; experiment: Intraperitoneal Glucose Tolerance Test (IPGTT); assay type: in vivo, mouse
# Experimental: To examine the ability of exemplified the compound to activate GPR40 in-vivo resulting in anti-diabetic efficacy, i.e. reduction in plasma glucose levels, a 4-day intraperitoneal glucose tolerance test (ipGTT) study is completed, and the data is shown for the compound tested below.
# Male Balb/c (Albino mice) mice (8-9 weeks of age) are single housed, and fed with normal rodent chow diet and water ad libitum. Animals are weighed; randomized by body weight; and their daily body weights are recorded Animals are dosed once per day orally for three days using a formulation carrying methylcellulose and tween-80. On the night before Day 4, animals are fasted overnight. On the morning of Day 4, animals are dosed orally with compound or vehicle alone 60 minutes prior to the glucose tolerance test (glucose 2 g/kg, i.p.). Blood glucose levels are determined from tail bleeds taken at 0, 3, 7, 15, 30, and 60 min after glucose challenge. The blood glucose excursion profile from t=0 to t=60 min is used to integrate an area under the curve (AUC) for each treatment. Percent lowering in glucose is calculated from the AUC data of the compound with respect to the AUC of vehicle group. The test compound is orally administered at 0.3, 1.0, 3.0, 10, or 30 mg/kg, and a positive control (3-[4-(2-methyl-benzyloxy)-phenyl]-hex-4-ynoic acid, see WO2005086661.) is administered at 10 mg/kg. […] Glucose levels are lowered at the 15, 30, and 60 minute time points for the positive control. The ED50 for this compound based on AUCs for glucose lowering is 1.0 mg/kg.
smiles,measurement,setting,value
"CC#C[C@@H](CC(=O)O)c1ccc(OCc2ccc(CN3CCCc4cccc(OC)c43)s2)cc1 [Example 1, (3S)-3-[4-[[5-[(8-Methoxy-3,4-dihydro-2H-quinolin-1-yl)methyl]-2-thienyl]methoxy]phenyl]hex-4-ynoic acid]",binding,[1]; concentrations up to 10 μM,no binding is detected
same,IC50,"[1]; tested up to 30 μM, read-out: relative IC50",> 10 µM
same,PPAR binding values,[1]; with 10 μM concentrations of test compound,greater than 1000 nM
same,"Glucose levels compared to vehicle control, 30 and 60 minute time points","[2]; 1.0, 3.0, 10 and 30 mg/kg oral doses",significantly lowered
same,"Glucose levels compared to vehicle control, 15 minute time point","[2]; 3, 10 and 30 mg/kg oral doses",significantly lowered
same,ED50,"[2]; Mus musculus, oral, once per day, 4 days, glucose 2 g/kg i.p., AUC t=0 to 60 min, read-out: ED50 based on AUCs for glucose lowering",1 mg/kg
